Series [1] deals with HeLa cells. Put plainly: Confocal microscopy of LNPs with FRET-labeled siRNA probes. It counts as cell-based. Particulars: 50 ng FRET-labeled probes, one hour. As to the method: HeLa cells were seeded at 1.5×10^4 cells per well in black (clear bottom) 96-well plates (Greiner Bio-one) and incubated for 24 hours prior to transfection. The cells were then transfected with the inventive LNPs containing 50 ng of FRET-labeled probes for one hour. The cells were washed, fixed, and counterstained in PBS containing Hoechst (2 μg/mL) for nuclei identification. The cells were then imaged using an automated spinning disk confocal microscope (OPERA, Perkin Elmer) with a 40× objective. The exposure rates were maintained constant for individual fluorophores across the 96-well plate. The images were acquired from the Acapella software with a 20 μm scale bar.

The subject of series [2] is Human red blood cells (RBCs). Put plainly: Hemolysis assay. It counts as cell-based. Particulars: endosomal pH 5.5, 37 C, one hour. As to the method: Human red blood cells (RBCs, Innovative Research) were washed twice with 1×PBS and diluted in either 1×PBS or citrate buffer saline at pH 5.5 (CBS, 20 mM citrate buffer, 130 mM NaCl) to a 4% v/v RBC solution. In a v-bottom, 96-well plate, 100 μL of blank LNPs formulated at an equivalent concentration of 23.75 ng siRNA/μL (no siRNA was used) were added to 100 μL of the 4% v/v RBC solution in either PBS or CBS and heated to 37° C. for one hour. After cooling, the plate was centrifuged at 4° C. at 1000×g for 5 minutes. 100 μL of the supernatant was transferred into a clear 96-well assay plate and the UV absorption was read 540 nm. Positive and negative control experiments were carried out with 0.1% Triton-X (100%) and buffer alone, respectively.

The test system of series [3] is HeLa cells. Put plainly: Cellular uptake of LNPs with Alexa Fluor 647 siRNA (flow cytometry). It counts as cell-based. Conditions: two hours incubation, serum containing media. As to the method:
(§1) Extracellular/Intracellular Fluorescence Resonance Energy Transfer (FRET) Assays and Cellular Uptake
(§2) LNPs containing an equimolar mixture of siRNAs labeled with Alexa Fluor® 594 and Alexa Fluor® 647 were diluted to 10 ng siRNA/μL with 1×PBS and added to a black 96-well plate pre-plated with 20,000 HeLa cells at 37° C. Control wells contained LNPs with 1% Triton-X. To measure the FRET, the samples were excited at 540 nm, and the fluorescence intensity was read at 690 and 620 nm using a Tecan Safire 2 Microplate reader at 37° C. FRET was determined as the ratio of the fluorescence intensities at 690/620 nm. FRET signals for all LNPs were normalized to that of the control wells. For extracellular FRET experiments, an identical experiment was carried out without cells, and the FRET data obtained were similar. […] The trypsined cells were then neutralized with 120 μL of quenching media (25% cell culture media in 1×PBS) and transferred to a 96-well v-bottom plate and analyzed via flow cytometry. For each sample, 10,000 events were monitored and evaluated by a BD LSR II HTS flow cytometer (BD Bioscience). […] For cell uptake studies, LNPs formulated with just Alexa Fluor® 647 were analyzed using settings for the Alexa Fluor® 647 channel: exciation via a 633 nm (red, HeNe) laser and emission via a 660/20 nm filter.
On the technique in general: A flow cytometer gives signals particle by particle.

Series [4] can be described thus: 6-p-toluidinyl-naphthalene-2-sulfonate (TNS) assay, apparent pKa of the LNPs. It counts as physicochemical. Particulars: TNS fluorescence titration pH 2.5 to 8.5, fully formulated LNP. As to the method: 6-p-toluidinyl-naphthalene-2-sulfonate (TNS) Assay
A series of buffers with pH ranging between 2.5 and 8.5 were prepared by adjusting the pH of a solution containing 10 mM citrate, 10 mM phosphate, 10 mM borate, and 150 mM NaCl with 1N HCl. 90 μL of each buffer solution was added to a 96-well plate. A 300 μM stock solution of TNS was prepared in DMSO and 2 μL of this solution was added to the buffer solutions in the 96 well plate. After formulation, 10 μL of an LNP solution (prepared without siRNA) was added to the above mixture such that the synthesized lipid concentration (not co-lipids) in the final mixture was […]. The fluorescence of the resulting solution was obtained on a Tecan Safire 2 Microplate reader using an excitation wavelength of 325 nm and an emission wavelength of 435 nm. The fluorescence signal was plotted against pH and fitted using a three-parameter logistic equation (GraphPad Prism v.5.0a, GraphPad Software, San Diego Calif. USA). The pH value at which half of the maximum fluorescence is reached was reported as the apparent pKa of the LNPs.

The test system of series [5] is HeLa cells. Put plainly: Intracellular FRET with FRET-labeled siRNA probes (flow cytometry). The class given is cell-based. Particulars: early time point after transfection. As to the method: as §1, §2
In series [6] the test system is HeLa cells stably modified to constitutively express both firefly and Renilla luciferases. Put plainly: In vitro transfection: firefly luciferase silencing by LNP-siRNA (Dual-Glo). It counts as cell-based. Particulars: LNPs with anti-firefly luciferase siRNA, serum containing media, 24 hours. As to the method:
Lipid nanoparticles were formulated by mixing an equal volume of an ethanolic solution of a lipid of the invention (e.g., a compound of the invention) and an […] at pH 3 to give a 5:1 synthesized lipid:siRNA ratio. The resulting solution was then diluted in an equal volume of 1× phosphate-buffered saline (PBS). The ethanolic lipid solution contained a mixture of synthesized lipids, cholesterol (Sigma Aldrich), 1,2-distearoyl-sn-glycero-3-phosphocholine (DSPC, Avanti Polar Lipids, Alabaster, Ala.) and mPEG2000-DMG (MW 2660, Alnylam Pharmaceuticals, Cambridge, Mass.) at a molar ratio of 50:38.5:10:1.5 in 200-proof ethanol. For all studies, the ethanolic lipid and siRNA solutions were hand mixed via pipette. The LNPs for in vivo use were also dialyzed for 75 minutes against 1×PBS in 3500 MW cut-off (MWCO) cassettes (Pierce/Thermo Scientific, Rockford, Ill.) prior to use.
In vitro transfection was performed on HeLa cells stably modified to constitutively express both firefly and Renilla luciferases. Cells were maintained at 37° C. in a 5% CO2 atmosphere in high glucose Dulbelco modified Eagles medium without phenol red (Invitrogen, Carlsbad, Calif.) supplemented with 10% fetal bovine serum (FBS, Invitrogen). Prior to transfection, 15,000 cells were seeded in white 96-well plates and allowed to attach overnight. On the day of transfection, the media was replaced with 90 μL of fresh media. LNPs were formulated at a concentration of 10 ng/μL and diluted with 1×PBS to obtain the desired concentration. For example, to achieve a transfection of 25 ng of siRNA per well, the 10 ng/μL stock was diluted 1:4 to give 2.5 ng/μL, and 10 μL of this solution was added to the cells in 90 μL of media. Lipofectamine (RNAiMAX) was used according to the manufacturer's instructions as a positive control. Relative firefly luciferase silencing was assessed approximately 24 hours after LNP addition using a Dual-Glo luciferase assay kit (Promega, Madison, Wis.). The firefly luciferase values were normalized to the Renilla luciferase values in order to correct for potential toxicity and/or off-target effects. All experiments were carried out in sextuplicates.

Series [7] is described as follows: Dynamic light scattering, particle size. The class given is physicochemical. As to the method: After formulation, the LNPs-siRNA were diluted with 1×PBS to a final siRNA concentration of 2 μg/mL. The average particle size was measured via dynamic light scattering on a Malvern Zetasizer Nano ZS (Malvern Instruments, Worcestershire, UK). All experiments were carried out in triplicates.

The values below come from US9895443B2, “Multi-tailed lipids and uses thereof” (Massachusetts Institute of Technology, priority 2013, dated 2018).

Each structure is given as a SMILES string. Entries after “also recorded” stand apart in the source; their conditions may differ.

Consider `CCCCCCCCCCSCC(COC(=O)CCN(CCCN(CC)CC)CCC(=O)OCC(CSCCCCCCCCCC)SCCCCCCCCCC)SCCCCCCCCCC` (centres unmarked) [I-2], for which the “intracellular location of LNPs” value in the series with HeLa cells [1] was “located near the cell membrane and inside endocytic vesicles; also recorded: reside in the endocytic vesicles”. For the same compound, the “LNP-mediated hemolysis of RBCs at pH 5.5” value in series [2] is given as “hemolytic”.

Turning to `CCCCCCCCCCSCC(COC(=O)CCN(CCC(=O)OCC(CSCCCCCCCCCC)SCCCCCCCCCC)CCN(C)C)SCCCCCCCCCC` (centres unmarked) [I-3], the “intracellular location of LNPs” value in the series with HeLa cells [1] is “located near the cell membrane and inside endocytic vesicles; also recorded: reside in the endocytic vesicles”. Also, in series [2], the “LNP-mediated hemolysis of RBCs at pH 5.5” value is “hemolytic”.

As for `CCCCCCCCCCSCC(COC(=O)CCN(CCC(=O)OCC(CSCCCCCCCCCC)SCCCCCCCCCC)CCN(C(C)C)C(C)C)SCCCCCCCCCC` (centres unmarked) [I-4], the cellular uptake result with HeLa cells [3] is on record as “relatively high uptake”. Also, the “LNP pKa” value in series [4] was “low pKa values”. In the series on HeLa cells [5], the “intracellular FRET signal (uptake of intact LNPs)” value is given as “did not give an intracellular FRET signal”. Further, the “in vitro gene silencing (firefly luciferase, Luc/Ren)” value is “poor gene silencing; also recorded: limited gene silencing performance” in series [6] and “low gene silencing” in series [6] (listed as 4).

Take `CCCCCCCCCCSCC(COC(=O)CCN(CCCN(CCCC)CCCC)CCC(=O)OCC(CSCCCCCCCCCC)SCCCCCCCCCC)SCCCCCCCCCC` (centres unmarked) [I-6]: in series [4], the “LNP pKa” value was “low pKa values”. The “in vitro gene silencing (firefly luciferase, Luc/Ren)” value is given as “poor gene silencing” in series [6] and “low gene silencing” in series [6] (listed as 6).

Regarding `CCCCCCCCCCSCC(COC(=O)CCN(CCC(=O)OCC(CSCCCCCCCCCC)SCCCCCCCCCC)CCc1ccccn1)SCCCCCCCCCC` (centres unmarked) [I-13], the “LNP pKa” value in series [4] is reported as “low LNP pKa values”. Moreover, in series [6], the “in vitro gene silencing (firefly luciferase, Luc/Ren)” value is listed as “poor gene silencing”.

`CCCCCCCCCCSCC(COC(=O)CCN(CCC(=O)OCC(CSCCCCCCCCCC)SCCCCCCCCCC)CCC1CCCC1)SCCCCCCCCCC` (centres unmarked) [I-18]: the “in vitro gene silencing (firefly luciferase, Luc/Ren)” value in series [6] is given as “poor gene silencing; also recorded: unable to silence the target gene”. In series [7], the “particle size / nanoparticle formation” value was “able to form nanoparticles”.

For the compound `CCCCCCCCCCSCC(COC(=O)CCN(CCCn1ccnc1)CCC(=O)OCC(CSCCCCCCCCCC)SCCCCCCCCCC)SCCCCCCCCCC` (centres unmarked) [I-20], the “LNP pKa” value in series [4] is “low LNP pKa values”. The “in vitro gene silencing (firefly luciferase, Luc/Ren)” value in series [6] was “poor gene silencing”.

As to `CCCCCCCCCCSCC(COC(=O)CCN(CCCN1CCCN(C)CC1)CCC(=O)OCC(CSCCCCCCCCCC)SCCCCCCCCCC)SCCCCCCCCCC` (centres unmarked) [I-21], the “LNP pKa” value in series [4] is “low pKa values”. Also, the “in vitro gene silencing (firefly luciferase, Luc/Ren)” value is listed as “poor gene silencing” in series [6] and “low gene silencing” in series [6] (listed as 21).

In the case of `CCCCCCCCCCSCC(COC(=O)CCN(CCC(=O)OCC(CSCCCCCCCCCC)SCCCCCCCCCC)CCN1CCS(=O)(=O)CC1)SCCCCCCCCCC` (centres unmarked) [I-28], the cellular uptake result in the series on HeLa cells [3] was “relatively high uptake”. For the same compound, the “LNP pKa” value in series [4] is given as “low LNP pKa values”. Moreover, the “intracellular FRET signal (uptake of intact LNPs)” value with HeLa cells [5] is given as “did not give an intracellular FRET signal”. In addition, the “in vitro gene silencing (firefly luciferase, Luc/Ren)” value in series [6] was “limited gene silencing performance”.

For the compound `CCCCCCCCCCSCC(COC(=O)CCN(CCC(=O)OCC(CSCCCCCCCCCC)SCCCCCCCCCC)C1CCN(Cc2ccccc2)CC1)SCCCCCCCCCC` (centres unmarked) [I-29], the “LNP pKa” value in series [4] is “low LNP pKa values”. Also, the “in vitro gene silencing (firefly luciferase, Luc/Ren)” value in series [6] is recorded as “poor gene silencing”.

Turning to `CCCCCCCCCCSCC(COC(=O)CCN(CCC(=O)OCC(CSCCCCCCCCCC)SCCCCCCCCCC)C1CCN(Cc2ccccc2)C1)SCCCCCCCCCC` (centres unmarked) [I-30], in series [4], the “LNP pKa” value was “low LNP pKa values”. Further, in series [6], the “in vitro gene silencing (firefly luciferase, Luc/Ren)” value was “poor gene silencing”.
